Measured values from PMC8396040, “Direct Synthesis of Polyaromatic Cyclophanes Containing Bis-Methylene-Interrupted Z-Double Bonds and Study of Their Antitumor Activity In Vitro” (International Journal of Molecular Sciences, 2021).
In brackets after ≈: the same amount, converted by molar mass.

Key:
HL-60 = assay: Cytotoxicity, flow cytofluorimetry (Guava ViaCount / 7-AAD); format: cell-based; conditions: Homo sapiens, mean ± SEM, at least 3 independent experiments
Experimental: (§1) The cytotoxicity of the prepared compounds was studied using Jurkat, K562, U937, and HL-60 suspension tumor cells; conditionally normal Hek293 cells; and normal fibroblasts. The IC50 values were determined by flow cytofluorimetry with the Guava ViaCount reagent kit (Millipore, Bedford, MA, USA).
(§2) Cells (Jurkat, K562, U937, HL-60, HEK293, and normal fibroblasts) were purchased from HPA Culture Collections (Salisbury, UK) and cultured according to standard mammalian tissue culture protocols and the sterile technique. All cell lines used in the study were tested and shown to be free of mycoplasma and other […] contamination. HEK293 and fibroblast cell lines were cultured as monolayers and maintained in Dulbecco’s modified Eagle’s medium (DMEM, Gibco BRL, Waltham, MA, USA) supplemented with 10% fetal bovine serum and 1% penicillin-streptomycin solution at 37 °C in a humidified incubator under a 5% CO2 atmosphere.
(§3) Cells were maintained in RPMI 1640 (Jurkat, K562, U937, HL60) (Gibco, Waltham, MA, USA) supplemented with 4 mM glutamine, 10% FBS (Sigma, Burlington, MA, USA), and 100 units/ml penicillin–streptomycin (Sigma, Burlington, MA, USA). All types of cells were grown in an atmosphere of 5% CO2 at 37 °C. The cells were subcultured at 2–3-day intervals. Adherent cells (HEK293 and normal fibroblasts) were suspended using trypsin/EDTA and counted after they reached 80% confluency. Cells were then seeded in 24-well plates at 5 × 10^4 cells per well and incubated overnight. Jurkat, K562, U937, and HL60 cells were subcultured at 2-day intervals with a seeding density of 1 × 10^5 cells per 24-well plates in RPMI with 10% FBS.
(§4) Viability (live/dead) assessment was performed by staining cells with 7-AAD (7-Aminoactinomycin D) (Biolegend, Fell, Germany). After treatment, cells were harvested, washed 1–2 times with phosphate-buffered saline (PBS), and centrifuged at 400× g for 5 min. Cell pellets were resuspended in […] of flow cytometry staining buffer (PBS without Ca^2+ and Mg^2+, 2.5% FBS) and stained with 5 μL of 7-AAD staining solution for 15 min at room temperature in the dark. Samples were acquired on a NovoCyteTM 2000 FlowCytometry System (ACEA) equipped with a 488 nm argon laser. Detection of 7-AAD emission was collected through a 675/30 nm filter in FL4 channel.

Hek293 = assay: as above; format: cell-based; conditions: Homo sapiens, mean ± SEM, at least 3 independent experiments
Experimental: as §1, §2, §3, §4

Jurkat = assay: as above; format: cell-based; conditions: Homo sapiens, mean ± SEM, at least 3 independent experiments
Experimental: as §1, §2, §3, §4

K562 = assay: as above; format: cell-based; conditions: Homo sapiens, mean ± SEM, at least 3 independent experiments
Experimental: as §1, §2, §3, §4

U937 = assay: as above; format: cell-based; conditions: Homo sapiens, U-937; mean ± SEM, at least 3 independent experiments
Experimental: as §1, §2, §3, §4

normal fibroblasts = assay: as above; format: cell-based; conditions: Fibroblast; mean ± SEM, at least 3 independent experiments; read-out: Fibrobl. (IC50)
Experimental: as §1, §2, §3, §4

Jurkat cells [1] = assay: Induction of apoptosis, Annexin V / 7AAD flow cytometry; format: cell-based; conditions: 24 h; for apoptosis-inducing effect, dependence on dose: 0.1-0.3 µM
Experimental: We studied the new macrodiolides for the induction of apoptosis and for the effect on the cell cycle. For this purpose, we chose the Jurkat, K562, and U937 cell lines. Apoptosis was studied by flow cytofluorimetry using Annexin V and 7-aminoactinomycin D (7AAD) (Guava Nexin reagent (Millipore, Bedford, MA, USA)). After incubation, the cells were analyzed using a NovoCyte™ 2000 Flow Cytometry System (ACEA). Apoptotic cells are characterized by externalization of the phosphatidylserine (PS) phospholipid, which is normally located, in living cells, on the inner surface of the cell membrane. The phospholipid location on the outer membrane surface can be detected from early apoptosis up to complete cell degradation. […] The use of Annexin V in combination with 7AAD allows simultaneous discrimination between viable cells (V–/7AAD–), early apoptotic cells (V+/7AAD–), and late apoptotic or necrotic cells (V+/7AAD+).
Induction of apoptosis tests were carried out following the known procedure. Apoptosis was determined by flow cytometric analysis of Annexin V and 7-aminoactinomycin D staining. After treatment, cells during 24 h were harvested, washed 1–2 times with phosphate-buffered saline (PBS), and centrifuged at 400× g for 5 min. Cell pellets were resuspended in 200 μL of flow cytometry staining buffer (PBS without Ca^2+and Mg^2+, 2.5% FBS). Then, 200 μL of Guava Nexin reagent (Millipore, Bedford, MA, USA) were added to 5 × 10^5 cells in 200 μL, and the cells were incubated with the reagent for 20 min at room temperature in the dark. At the end of incubation, the cells were analyzed on a NovoCyteTM 2000 FlowCytometry System (ACEA, San Diego, CA, USA).

Jurkat cells [2] = assay: Mitochondrial damage, MitoSense Red / Annexin V-CF488A / 7-AAD (FlowCellect MitoDamage Kit); format: cell-based; conditions: for percentage of Jurkat tumor cells with reduced Δψ: 4 h (Figure 4)
Text: The changes in the mitochondrial membrane potential (ΔΨ) in Jurkat cells induced by treatment with compounds 8a, 8b, and 8c were detected using the MitoSense Red, a fluorescent dye, which is mainly accumulated in mitochondria and responds to changes in the membrane potential. The viable whole-body cells induce a high fluorescence level of MitoSense Red, whereas cells with dissipated mitochondrial membrane potential cause much lower fluorescence of MitoSense Red or no fluorescence. Annexin V and 7AAD are two dyes commonly used to detect apoptotic cells. […] Thus, using three different dyes, MitoSense Red, Annexin V (CF488A), and 7-AAD, we analyzed the dissipation of the mitochondrial membrane potential and the related apoptosis in Jurkat tumor cells in response to the action of synthesized macrodiolides (Figure 4).
Mitochondrial damage tests were carried out following the known procedure. Cytometric assay (Millipore’s FlowCellect™MitoDamage Kit, Merck, Burlington, MA, USA) that allowed multiparametric evaluation of three cell health markers: change in mitochondrial potential (early apoptosis and cellular stress), phosphatidylserine expression on the cell surface […], and membrane permeabilization (cell death), was used.

Jurkat cells [3] = assay: Cell cycle analysis (Guava Cell Cycle Reagent); format: cell-based; conditions: IC50 concentrations (8a 0.15 µM, 8b 0.16 µM, 8c 0.13 µM), 24 h
Experimental: Cell cycle analysis was carried out following the known procedure. Guava Cell Cycle Reagent (Millipore, Burlington, MA, USA) was used. Samples were analyzed on a NovoCyteTM 2000 FlowCytometry System (ACEA, San Diego, CA, USA).

[4] = tested on: HT-29 human colon cancer cells; design: method as in PMID 12530851, PMID 16551088; conditions: HT-29 cell line; cited from earlier work

SMILES | IC50 (HL-60) | IC50 (Hek293) | IC50 (Jurkat) | IC50 (K562) | IC50 (U937) | IC50 (normal fibroblasts) | apoptosis-inducing effect, dependence on dose (Jurkat cells [1]) | action on mitochondria (reduction of mitochondrial potential) compared with staurosporine (Jurkat cells [2]) | percentage of Jurkat tumor cells with reduced Δψ (Jurkat cells [2]; 0.15 µM) | Freq G1 (percentage of cells in G0/G1 phase) (Jurkat cells [3]) | An+,PI+ cells (late apoptosis) (Jurkat cells [1]; 0.1 µM) | An+,PI+ cells (late apoptosis) (Jurkat cells [1]; 0.3 µM) | PI+ cells (necrotic) (Jurkat cells [1]; 0.3 µM) | percentage of apoptotic cells (early apoptosis and late apoptosis) (Jurkat cells [2]; 0.15 µM, 4 h) | Freq Sub-G1 (cells in the sub-G0-G1 range) (Jurkat cells [3]) | IC50 [4]
O=C1OCCC/C=C\CC/C=C\CCCOC(=O)c2ccccc2OCc2ccccc2COc2ccccc21 [6a, (10Z,14Z)-7,8,9,12,13,16,17,18,26,31-decahydro-5H,20H-tribenzo[c,g,k][1,5,10,14]tetraoxacyclohexacosine-5,20-dione] | 430 ± 30 nM | 1940 ± 170 nM | 390 ± 30 nM | 610 ± 50 nM | 490 ± 40 nM | 4710 ± 420 nM | – | – | – | – | – | – | – | – | – | –
O=C1OCCC/C=C\CC/C=C\CCCOC(=O)c2ccccc2OCc2cccc(c2)COc2ccccc21 [6b, (13Z,17Z)-2,6,9,22-tetraoxa-1,7(1,2),4(1,3)-tribenzenacyclotricosaphane-13,17-diene-8,23-dione] | 440 ± 40 nM | 2180 ± 210 nM | 480 ± 50 nM | 640 ± 60 nM | 510 ± 50 nM | 5090 ± 470 nM | – | – | – | – | – | – | – | – | – | –
O=C1OCCC/C=C\CC/C=C\CCCOC(=O)c2ccccc2OCc2ccc(cc2)COc2ccccc21 [6c, (13Z,17Z)-2,6,9,22-tetraoxa-1,7(1,2),4(1,4)-tribenzenacyclotricosaphane-13,17-diene-8,23-dione] | 400 ± 30 nM | 1760 ± 160 nM | 340 ± 30 nM | 580 ± 50 nM | 460 ± 40 nM | 4220 ± 390 nM | – | – | – | – | – | – | – | – | – | –
O=C1OCCCC/C=C\CC/C=C\CCCCOC(=O)c2ccccc2OCc2ccccc2COc2ccccc21 [7a, (11Z,15Z)-7,8,9,10,13,14,17,18,19,20,28,33-dodecahydro-5H,22H-tribenzo[c,g,k][1,5,10,14]tetraoxacyclooctacosine-5,22-dione] | 940 ± 80 nM | 3860 ± 340 nM | 490 ± 40 nM | 760 ± 80 nM | 560 ± 60 nM | 7120 ± 590 nM | – | – | – | – | – | – | – | – | – | –
O=C1OCCCC/C=C\CC/C=C\CCCCOC(=O)c2ccccc2OCc2cccc(c2)COc2ccccc21 [7b, (14Z,18Z)-2,6,9,24-tetraoxa-1,7(1,2),4(1,3)-tribenzenacyclopentacosaphane-14,18-diene-8,25-dione] | 970 ± 90 nM | 4210 ± 390 nM | 940 ± 80 nM | 1490 ± 110 nM | 1170 ± 90 nM | 7690 ± 720 nM | – | – | – | – | – | – | – | – | – | –
O=C1OCCCC/C=C\CC/C=C\CCCCOC(=O)c2ccccc2OCc2ccc(cc2)COc2ccccc21 [7c, (14Z,18Z)-2,6,9,24-tetraoxa-1,7(1,2),4(1,4)-tribenzenacyclopentacosaphane-14,18-diene-8,25-dione] | 890 ± 90 nM | 3470 ± 310 nM | 350 ± 30 nM | 590 ± 40 nM | 390 ± 30 nM | 6550 ± 610 nM | – | – | – | – | – | – | – | – | – | –
O=C1OCCCCCC/C=C\CC/C=C\CCCCCCOC(=O)c2ccccc2OCc2ccccc2COc2ccccc21 [8a, (13Z,17Z)-7,8,9,10,11,12,15,16,19,20,21,22,23,24,32,37-hexadecahydro-5H,26H-tribenzo[c,g,k][1,5,10,14]tetraoxacyclodotriacontine-5,26-dione] | 220 ± 20 nM | 1440 ± 110 nM | 150 ± 20 nM | 370 ± 20 nM | 300 ± 20 nM | 3370 ± 290 nM | dose dependent | comparable with the action of staurosporine | 19.36% | 63.04% | – | – | – | – | – | –
O=C1OCCCCCC/C=C\CC/C=C\CCCCCCOC(=O)c2ccccc2OCc2cccc(c2)COc2ccccc21 [8b, (16Z,20Z)-2,6,9,28-tetraoxa-1,7(1,2),4(1,3)-tribenzenacyclononacosaphane-16,20-diene-8,29-dione] | 240 ± 20 nM | 1680 ± 140 nM | 160 ± 10 nM | 390 ± 40 nM | 310 ± 30 nM | 3480 ± 320 nM | dose dependent | comparable with the action of staurosporine | 41.71% | 59.16% | 64.36% | 58.0% | 26.49% | 58.15% | 4.13% | –
O=C1OCCCCCC/C=C\CC/C=C\CCCCCCOC(=O)c2ccccc2OCc2ccc(cc2)COc2ccccc21 [8c, (16Z,20Z)-2,6,9,28-tetraoxa-1,7(1,2),4(1,4)-tribenzenacyclononacosaphane-16,20-diene-8,29-dione] | 190 ± 10 nM | 1210 ± 90 nM | 130 ± 10 nM | 340 ± 30 nM | 270 ± 20 nM | 3190 ± 280 nM | dose dependent | – | 26.26% | 55.93% | – | – | – | – | – | –
Oc1cccc(C23C=C4CN(CCc5ccc(c(O)c5)-c5ccc(O)cc54)C2Cc2cccc(O)c23)c1 (centres unmarked) [Haouamine A] | – | – | – | – | – | – | – | – | – | – | – | – | – | – | – | 0.1 µg/mL (≈ 0.204 µM)
